The source of these data is BindingDB's records for doi:10.1016/j.bioorg.2017.01.016 (CSIR-Indian Institute of Chemical Biology, 2017).

Experiment [1] concerns the target T1, Seed linoleate 13S-lipoxygenase-1 (Glycine max, UniProt P08170).
T1 sequence (P08170 whole entry): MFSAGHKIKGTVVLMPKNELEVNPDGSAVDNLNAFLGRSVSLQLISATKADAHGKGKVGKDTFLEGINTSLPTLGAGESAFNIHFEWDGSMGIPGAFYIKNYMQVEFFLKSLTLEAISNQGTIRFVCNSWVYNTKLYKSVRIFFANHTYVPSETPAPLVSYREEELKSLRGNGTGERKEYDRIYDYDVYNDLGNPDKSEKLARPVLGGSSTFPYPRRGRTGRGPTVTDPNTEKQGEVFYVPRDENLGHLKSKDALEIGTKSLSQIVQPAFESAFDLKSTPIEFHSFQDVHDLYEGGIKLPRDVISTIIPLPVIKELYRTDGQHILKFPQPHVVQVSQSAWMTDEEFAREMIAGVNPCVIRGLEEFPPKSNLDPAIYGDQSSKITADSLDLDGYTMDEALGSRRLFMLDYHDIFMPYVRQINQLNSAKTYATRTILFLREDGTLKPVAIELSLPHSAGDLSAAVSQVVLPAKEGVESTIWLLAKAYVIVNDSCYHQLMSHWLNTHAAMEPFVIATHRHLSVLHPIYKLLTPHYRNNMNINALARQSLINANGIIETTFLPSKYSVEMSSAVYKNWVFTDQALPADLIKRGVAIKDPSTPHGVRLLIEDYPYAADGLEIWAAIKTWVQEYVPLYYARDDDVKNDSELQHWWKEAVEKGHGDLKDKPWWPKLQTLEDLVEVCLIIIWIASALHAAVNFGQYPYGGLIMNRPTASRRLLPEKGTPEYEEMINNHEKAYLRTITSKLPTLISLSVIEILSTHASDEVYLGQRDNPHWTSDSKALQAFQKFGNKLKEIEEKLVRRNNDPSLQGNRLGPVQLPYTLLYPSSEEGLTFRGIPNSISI
Description: In Vitro Soybean Lipoxygenase (SLO) Inhibition Assay. The settings on record: pH 8. The text has this: Following are the compositions of the blank, control and sample.

Another experiment addresses T2, Lipoxygenase (Soybean, UniProt B3TDK4).
T2 sequence (B3TDK4 whole entry): T1 sequence (P08170 whole entry) with S160E
Description: Molecular Docking. As for the experimental part: The crystal structure of soybean lipoxygenase-1 (PDB code: 3PZW), was used in our docking experiments. The 3D structure of 3PZW was reported by Chruszcz et al. [Chruszcz et al., Biophys. J., 95(1):1-9] using X-ray diffraction technique with a resolution of […] . The docking of ligands to the catalytic site of soybean lipoxygenase was performed using AutoDock 4.0 software (http://autodock.scripps.edu/).

Substitutions are numbered along the chain they refer to.

Broadly, the IC50 is the concentration needed to halve the response being measured. As a reminder, the Ki is a measure of affinity in units of concentration, obtained from inhibition or displacement. For `CCOC(=O)c1c(C)oc(-c2ccc(C)cc2)c1CC(=O)c1ccc(C)cc1` [2-Methyl-4-(2-oxo-2-p-tolyl-ethyl)-5-p-tolyl-furan-3-carboxylic acid ethyl ester (3d)], the IC50 in experiment [1] was found to be 22600 nM. Also, the inhibition constant (Ki) at Lipoxygenase stood at 246 nM.

Regarding `CCOC(=O)c1c(C)oc(-c2ccccc2)c1CC(=O)c1ccccc1` [2-Methyl-4-(2-oxo-2-phenyl-ethyl)-5-phenyl-furan-3-carboxylic acid ethyl ester (3b)], in experiment [1], the half-maximal inhibitory concentration (IC50) worked out at 287000 nM. The compound further displayed a Ki at Lipoxygenase of 868 nM.

In the case of `COC(=O)c1c(C)oc(-c2ccccc2)c1CC(=O)c1ccccc1` [2-Methyl-4-(2-oxo-2-phenyl-ethyl)-5-phenyl-furan-3-carboxylic acid methyl ester (3a)], inhibition in experiment [1] was half-maximal at 78500 nM (IC50). The Ki on Lipoxygenase worked out at 662 nM.

On to `COC(=O)c1c(C)oc(-c2ccc(C)c(Cl)c2)c1CC(=O)c1ccc(C)c(Cl)c1` [5-(3-Chloro-4-methyl-phenyl)-4-[2-(3-chloro-4-methyl-phenyl)-2-oxo-ethyl)-2-methyl-furan-3-carboxylic acid methyl ester (3i)], for which inhibition in experiment [1] was half-maximal at 47500 nM (IC50). The compound further had a Ki on Lipoxygenase of 357 nM.

`CCOC(=O)c1c(C)oc(-c2ccc(Br)cc2)c1CC(=O)c1ccc(Br)cc1` [5-(4-Bromo-phenyl)-4[2-(4-bromo-phenyl)-2-oxo-ethyl]-2-methyl-furan-3-carboxylic acid ethyl ester (3f)] gave an IC50 in experiment [1] of 21200 nM. The same compound registered a Ki on Lipoxygenase of 141 nM.

As to `COC(=O)c1c(C)oc(-c2ccc(Br)cc2)c1CC(=O)c1ccc(Br)cc1` [5-(4-Bromo-phenyl)-4[2-(4-bromo-phenyl)-2-oxo-ethyl]-2-methyl-furan-3-carboxylic acid methyl ester (3e)], in experiment [1], the midpoint of inhibition, the IC50, lay at 12800 nM. The compound further had a Ki at Lipoxygenase of 70.9 nM.

Take `CCOC(=O)c1c(C)oc(-c2ccc(Cl)cc2)c1CC(=O)c1ccc(Cl)cc1` [5-(4-Chloro-phenyl)-4[2-(4-chloro-phenyl)-2-oxo-ethyl]-2-methyl-furan-3-carboxylic acid ethyl ester (3h)]: half-maximal inhibition in experiment [1] (IC50) was put at 32000 nM. The compound further gave a Ki at Lipoxygenase of 345 nM.

For `COC(=O)c1c(C)oc(-c2ccc(Cl)cc2)c1CC(=O)c1ccc(Cl)cc1` [5-(4-Chloro-phenyl)-4[2-(4-chloro-phenyl)-2-oxo-ethyl]-2-methyl-furan-3-carboxylic acid methyl ester (3g)], the half-inhibitory concentration (IC50) in experiment [1] was determined as 32500 nM. For the same compound, the affinity at Lipoxygenase corresponds to a Ki of 313 nM.

`CC(Cc1ccc(O)c(O)c1)C(C)Cc1ccc(O)c(O)c1` (centres undefined) [LOX inhibitor, N/A] returned a Ki at Lipoxygenase of 232 nM.

With `COC(=O)c1c(C)oc(-c2ccc(C)cc2)c1CC(=O)c1ccc(C)cc1` [Methyl 2-methyl-5-(4-methylphenyl)-4-[2-(4-methylphenyl)-2-oxoethyl]furan-3-carboxylate (3c)], the 50% inhibitory concentration (IC50) in experiment [1] amounted to 22100 nM. In addition, the affinity on Lipoxygenase, expressed as Ki, was 178 nM.
